Patent US8263596B2, “Kinase inhibitors and method of treating cancer” (University Health Network, priority 2010, dated 2012)
Where two headings read alike, the source gives them in different places.

What was measured:
[1] = system: HUV-EC-C cells; experiment: In vitro angiogenesis assay (tube formation); assay type: cell-based; conditions: 4 hr
Description: Activity against these RTKs can result in antiangiogenic activity which is associated with slowed tumor growth and/or tumor regression. To measure the antiangiogenic effects of compounds of the invention, selected examples were tested in an angiogenesis assay as described below.
HUV-EC-C cells were obtained from the American Type Culture Collection (ATCC, CRL-1730), and were used at early passage for the assay. The in vitro Angiogenesis Assay Kit (Chemicon) was used according to the manufacturer's recommendation. An ice-cold mixture of ECMatrix was transferred into a precooled 96-well plate. After the matrix solution had solidified (>1 hr incubation at 37° C.), 8,000 cells were mixed with the appropriate inhibitor concentration (in 100 microlitres EGM-2) and plated into each well. The clinical antiangiogenic, Sutent was used as a positive control in comparison to a compound of the invention, A13. After incubation at 37° C. for 4 hr, tube formation was inspected. Two methods, pattern recognition and branch point counting, were used to quantify the progression of angiogenesis and expressed as a percentage of the control tube count (FIGS. 1 and 2).

[2] = target: Aurora B (Homo sapiens, UniProt Q96GD4); experiment: Aurora B inhibition assay (Z-Lyte); assay type: biochemical; conditions: read-out: IC50 Ranges Aurora B
Description: Aurora B inhibition was determined using the Z-Lyte assay kit from Invitrogen. […] The % inhibition values were determined according to the manufacturer's directions and IC50 values were obtained using a non-linear 4 point logistic curve fit (XLfit4, IDBS)

[3] = target: T1, FLT3 (Homo sapiens, UniProt P36888); experiment: FLT3 inhibition assay (Z-Lyte); assay type: biochemical; conditions: read-out: IC50 Ranges Flt3
T1 construct: purchased Invitrogen PV3182
T1 sequence (P36888 27-993): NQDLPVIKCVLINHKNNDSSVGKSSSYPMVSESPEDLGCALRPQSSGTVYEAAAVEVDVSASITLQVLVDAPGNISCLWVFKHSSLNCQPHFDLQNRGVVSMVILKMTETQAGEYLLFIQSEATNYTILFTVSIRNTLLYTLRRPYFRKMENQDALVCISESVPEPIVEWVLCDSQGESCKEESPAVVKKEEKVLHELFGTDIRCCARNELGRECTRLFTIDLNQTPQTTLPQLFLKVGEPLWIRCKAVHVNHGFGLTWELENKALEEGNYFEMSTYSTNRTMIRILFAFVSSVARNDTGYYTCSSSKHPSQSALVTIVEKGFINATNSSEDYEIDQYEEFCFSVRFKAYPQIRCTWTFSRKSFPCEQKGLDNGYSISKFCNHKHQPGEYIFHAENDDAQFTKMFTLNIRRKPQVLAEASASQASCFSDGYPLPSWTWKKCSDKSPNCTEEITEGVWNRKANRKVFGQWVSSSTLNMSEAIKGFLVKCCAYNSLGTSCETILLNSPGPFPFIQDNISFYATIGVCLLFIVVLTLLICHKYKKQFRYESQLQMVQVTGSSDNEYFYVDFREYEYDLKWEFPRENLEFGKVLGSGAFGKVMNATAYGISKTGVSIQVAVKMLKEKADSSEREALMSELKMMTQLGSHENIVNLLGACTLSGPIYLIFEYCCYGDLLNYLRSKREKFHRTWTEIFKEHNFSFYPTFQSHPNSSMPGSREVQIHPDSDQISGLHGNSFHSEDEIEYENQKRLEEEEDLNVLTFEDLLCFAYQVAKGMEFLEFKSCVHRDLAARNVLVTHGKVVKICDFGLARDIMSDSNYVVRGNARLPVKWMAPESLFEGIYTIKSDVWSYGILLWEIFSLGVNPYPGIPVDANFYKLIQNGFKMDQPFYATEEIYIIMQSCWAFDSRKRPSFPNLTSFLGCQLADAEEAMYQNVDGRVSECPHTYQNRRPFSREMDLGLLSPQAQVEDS
Description: The enzymatic activity of FLT3 was determined using the Z-Lyte assay kit from Invitrogen (Invitrogen cat #PV3191). […] The % inhibition values were determined according to the manufacturer's directions and IC50 values were obtained using a non-linear 4 point logistic curve fit (XLfit4, IDBS).

[4] = target: T2, human PLK4 (Homo sapiens, UniProt O00444); experiment: PLK4 inhibition assay (indirect ELISA); assay type: biochemical
T2 construct: amino terminal GST fusion of residues 1-391 of human PLK4; made in house; host or cells: E. coli
T2 sequence (O00444 1-391): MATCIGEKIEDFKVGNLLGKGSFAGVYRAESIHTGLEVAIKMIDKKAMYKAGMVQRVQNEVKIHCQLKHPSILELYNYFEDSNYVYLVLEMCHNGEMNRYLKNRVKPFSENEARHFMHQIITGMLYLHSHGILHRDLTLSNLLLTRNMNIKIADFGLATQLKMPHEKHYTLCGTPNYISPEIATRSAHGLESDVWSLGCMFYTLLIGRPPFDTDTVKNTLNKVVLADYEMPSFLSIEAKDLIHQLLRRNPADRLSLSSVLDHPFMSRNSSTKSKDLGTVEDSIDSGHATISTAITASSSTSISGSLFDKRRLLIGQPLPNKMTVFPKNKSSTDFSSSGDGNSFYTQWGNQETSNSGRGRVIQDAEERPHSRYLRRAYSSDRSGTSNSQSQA
Description: PLK4 activity was measured using an indirect ELISA detection system. […] The colourimetric reaction was allowed to continue for 5 minutes, followed by addition of stop solution (0.5 N sulphuric acid), and quantified by detection at 450 nm with either a monochromatic or filter based plate reader (Molecular Devices M5 or Beckman DTX880, respectively).
Compounds were pre-incubated in the presence of enzyme for 15 minutes prior to addition of ATP and the activity remaining quantified using the above described activity assay. […] The IC50 value was determined using a non-linear 4 point logistic curve fit (XLfit4, IDBS) with the formula; (A+(B/(1+((x/C)^D)))), where A=background value, B=range, C=inflection point, D=curve fit parameter.

[5] = target: T3, Aurora A (Homo sapiens, UniProt O14965); experiment: Aurora A inhibition assay (Z-Lyte); assay type: biochemical
T3 sequence (O14965 1-403): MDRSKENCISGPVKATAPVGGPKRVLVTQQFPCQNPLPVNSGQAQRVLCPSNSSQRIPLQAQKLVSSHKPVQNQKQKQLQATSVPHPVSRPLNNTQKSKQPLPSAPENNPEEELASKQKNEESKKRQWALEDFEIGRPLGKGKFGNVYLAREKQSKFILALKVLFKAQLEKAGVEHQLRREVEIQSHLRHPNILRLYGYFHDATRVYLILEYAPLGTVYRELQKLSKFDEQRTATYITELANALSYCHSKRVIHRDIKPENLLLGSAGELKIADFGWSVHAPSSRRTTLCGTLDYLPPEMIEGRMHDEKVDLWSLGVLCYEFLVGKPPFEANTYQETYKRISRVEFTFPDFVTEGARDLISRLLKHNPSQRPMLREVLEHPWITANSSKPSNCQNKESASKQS

Chain of Aurora B (Q96GD4 whole entry): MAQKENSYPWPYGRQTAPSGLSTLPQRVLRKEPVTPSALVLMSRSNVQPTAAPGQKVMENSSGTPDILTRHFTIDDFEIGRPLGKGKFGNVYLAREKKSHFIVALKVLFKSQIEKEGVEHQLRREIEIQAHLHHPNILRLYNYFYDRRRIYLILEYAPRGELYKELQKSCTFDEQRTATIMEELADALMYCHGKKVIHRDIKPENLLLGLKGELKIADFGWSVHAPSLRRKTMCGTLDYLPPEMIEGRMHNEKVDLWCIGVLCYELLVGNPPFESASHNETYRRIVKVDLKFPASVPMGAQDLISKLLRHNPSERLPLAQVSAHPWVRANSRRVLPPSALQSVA

SMILES: COc1ccc2c(c1)[C@]1(C[C@H]1c1ccc3c(-c4ccc(N5CCN(C)CC5)nc4)n[nH]c3c1)C(=O)N2 (relative stereo) [Example A13, (1R*,2S*)-5′-Methoxy-2-(3-(6-(4-methylpiperazin-1-yl)pyridin-3-yl)-1H-indazol-6-yl)spiro[cyclopropane-1,3′-indolin]-2′-one]
- antiangiogenic effect (tube formation) [1]: anti-agiogenic effects at submicromolar concentrations

SMILES: O=C1Nc2ccccc2[C@]12C[C@H]2c1ccc2c(/C=C/c3ccncc3)n[nH]c2c1 (relative stereo) [Example A22, (1R*,2S*)-(E)-2-(3-(2-(pyridin-4-yl)vinyl)-1H-indazol-6-yl)spiro-[cyclo-propane-1,3′-indolin]-2′-one]
- antiangiogenic effect (tube formation) [1]: anti-agiogenic effects at submicromolar concentrations

SMILES: CN(C)Cc1ccc(/C=C/c2n[nH]c3cc([C@@H]4C[C@@]45C(=O)Nc4ccccc45)ccc23)cc1 (relative stereo) [Example A23, (1R*,2S*)-(E)-2-(3-(4-((dimethylamino)methyl)styryl)-1H-indazol-6-yl)spiro[cyclopropane-1,3′-indolin]-2′-one 2,2,2-trifluoroacetate]
- antiangiogenic effect (tube formation) [1]: anti-agiogenic effects at submicromolar concentrations

SMILES: COc1ccc2c(c1)[C@]1(C[C@H]1c1ccc3c(-c4cccc(CN5CCOCC5)c4)n[nH]c3c1)C(=O)N2 (relative stereo) [Example A136, (1R*,2S*)-5′-methoxy-2-(3-(3-(morpholinomethyl)phenyl)-1H-indazol-6-yl)spiro[cyclopropane-1,3′-indolin]-2′-one 2,2,2-trifluoroacetate]
- IC50 [2]: < 0.1 µM
- IC50 [3]: > 1 µM
- IC50 ([4]; read-out: IC50 Ranges PLK4): < 0.1 µM

SMILES: COc1ccc2c(c1)[C@]1(C[C@H]1c1ccc3c(/C=C/c4cccc(CN5CCOCC5)c4)n[nH]c3c1)C(=O)N2 [Example A132, (1R,2S)-5′-methoxy-2-(3-(3-(morpholinomethyl)styryl)-1H-indazol-6-yl)spiro[cyclopropane-1,3′-indolin]-2′-one 2,2,2-trifluoroacetate]
- IC50 [5]: 0.1 to 1 µM

SMILES: COCCN1C(=O)[C@@]2(C[C@H]2c2ccc3c(/C=C/c4ccc(CN(C)C)cc4)n[nH]c3c2)c2ccccc21 (relative stereo) [Example A180, (1R*,2S*)-(E)-2-(3-(4-((dimethylamino)methyl)styryl)-1H-indazol-6-yl)-1′-(2-methoxyethyl)spiro[cyclopropane-1,3′-indolin]-2′-one 2,2,2-trifluoroacetate]
- IC50 [5]: < 0.1 µM

SMILES: CCc1ccc2c(c1)[C@]1(C[C@H]1c1ccc3c(-c4ccc(N5CCN(C)CC5)cc4)n[nH]c3c1)C(=O)N2 (relative stereo) [Example A142, (1R*,2S*)-5′-ethyl-2-(3-(4-(4-methylpiperazin-1-yl)phenyl)-1H-indazol-6-yl)spiro[cyclopropane-1,3′-indolin]-2′-one 2,2,2-trifluoroacetate]
- inhibition at 1 µM [5]: < 50%

SMILES: CN1CCN(c2ccc(-c3n[nH]c4cc([C@@H]5C[C@@]56C(=O)Nc5ccccc56)ccc34)cn2)CC1 (racemic) [Example A18, (1R*,2S*)-2-(3-(6-(4-Methylpiperazin-1-yl)pyridin-3-yl)-1H-indazol-6-yl)spiro[cyclopropane-1,3′-indolin]-2′-one]
- IC50 [2]: < 0.1 µM
- IC50 [5]: 0.1 to 1 µM
- IC50 [4]: < 0.1 µM

SMILES: COc1ccc2c(c1)[C@]1(C[C@H]1c1ccc3c(/C=C/c4ccc(C(=O)N5CCN(C)CC5)cc4)n[nH]c3c1)C(=O)N2 (relative stereo) [Example A179, (1R*,2S*)-(E)-5′-methoxy-2-(3-(4-(4-methylpiperazine-1-carbonyl)styryl)-1H-indazol-6-yl)spiro[cyclopropane-1,3′-indolin]-2′-one 2,2,2-trifluoroacetate]
- IC50 [2]: < 0.1 µM
- IC50 [5]: < 0.1 µM
- IC50 ([4]; read-out: IC50 Ranges PLK4): < 0.1 µM
